Non-standard residues stand in square brackets, D forms with d. Residues, ends and D or L forms follow the SMILES beside them. No end group written: not given here.
Biological target: T1, Herpes Simplex Virus Ribonucleotide Reductase (HSV RR) (Human herpesvirus 2, UniProt P89462)
T1 construct: HSV RR was purified by Baby Hamster Kidney cells that were cultured with HSV2 Strain 186; made in house; host or cells: Baby Hamster Kidney cells infected with HSV2 Strain 186; crude enzyme per Huszar et al., then hydroxyapatite chromatography
Test: Assay of inhibition of HSV RR (reduction of tritiated cytidine-diphosphate to deoxyribo-cytidinediphosphate)
Format: biochemical, HSV2 Strain 186
Settings: not given
Procedure: After infection, cells were harvested and lysed.
HSV RR activity was determined as the ability of the enzyme to catalyze the reduction of tritiated cytidine-diphosphate to deoxyribo-cytidinediphosphate in 30 minutes at 37° C. in the presence of dithiothreitol and MgCl2. Activity of oligopeptide inhibitors was determined by adding them to the reaction mix at the beginning of the incubation. Enzyme was not preincubated with inhibitor.
These were analyzed for amino acid composition and in some cases sequenced. Dry peptides were resuspended in 100 mM HEPES (pH 8.0) at about 2mM, relyophilized, and stored in aliquots at -80° C. Immediately prior to use they were rehydrated with distilled H2 O and centrifuged to remove any undissolved peptide.

T1 sequence (P89462 whole entry): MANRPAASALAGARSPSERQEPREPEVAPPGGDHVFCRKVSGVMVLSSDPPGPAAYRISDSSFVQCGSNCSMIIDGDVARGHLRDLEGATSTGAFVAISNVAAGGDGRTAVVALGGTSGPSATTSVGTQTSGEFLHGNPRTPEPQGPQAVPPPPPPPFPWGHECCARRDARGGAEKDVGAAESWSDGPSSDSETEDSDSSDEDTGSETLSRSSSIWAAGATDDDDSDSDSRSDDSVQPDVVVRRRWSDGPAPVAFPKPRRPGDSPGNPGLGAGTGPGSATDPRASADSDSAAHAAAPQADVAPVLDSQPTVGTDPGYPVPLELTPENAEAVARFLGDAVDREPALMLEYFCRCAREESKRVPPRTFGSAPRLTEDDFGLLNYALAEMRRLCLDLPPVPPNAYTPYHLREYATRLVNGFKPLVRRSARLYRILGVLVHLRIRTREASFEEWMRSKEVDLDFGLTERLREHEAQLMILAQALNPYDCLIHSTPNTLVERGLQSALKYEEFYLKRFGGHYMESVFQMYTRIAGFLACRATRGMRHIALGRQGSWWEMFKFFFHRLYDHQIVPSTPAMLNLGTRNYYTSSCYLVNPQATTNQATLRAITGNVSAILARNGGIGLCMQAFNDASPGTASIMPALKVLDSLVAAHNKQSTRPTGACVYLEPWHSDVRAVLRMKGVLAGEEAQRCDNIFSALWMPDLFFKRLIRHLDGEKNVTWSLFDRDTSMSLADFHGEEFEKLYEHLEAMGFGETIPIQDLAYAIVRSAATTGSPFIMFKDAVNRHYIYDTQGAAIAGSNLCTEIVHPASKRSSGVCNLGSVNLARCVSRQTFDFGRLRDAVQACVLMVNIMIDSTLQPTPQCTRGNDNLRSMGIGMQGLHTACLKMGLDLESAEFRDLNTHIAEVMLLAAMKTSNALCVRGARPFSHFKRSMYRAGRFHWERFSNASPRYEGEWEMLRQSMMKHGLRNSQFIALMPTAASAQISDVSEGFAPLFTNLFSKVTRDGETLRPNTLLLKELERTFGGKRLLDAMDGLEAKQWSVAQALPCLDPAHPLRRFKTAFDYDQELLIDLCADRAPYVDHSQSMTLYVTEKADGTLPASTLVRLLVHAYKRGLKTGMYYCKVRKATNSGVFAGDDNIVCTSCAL

Row | Compound | IC50 [µM]
1 | CC(C)C[C@H](NC(=O)[C@H](CC(=O)O)NC(=O)[C@H](CC(N)=O)NC(=O)[C@@H](NC(=O)[C@@H](NC(=O)[C@H](C)NC(=O)CNC(=O)[C@@H](C)NC(=O)[C@@H](N)Cc1ccc(O)cc1)C(C)C)C(C)C)C(=O)O [Y dA G A V V N D L] | 210

Same assay, conditions: 30 minutes at 37° C., dithiothreitol and MgCl2; enzyme not preincubated with inhibitor; read-out: IC50 (μM concentration of peptide producing 50% inhibition of enzyme activity)

Row | Compound | IC50 [µM]
2 | CC(C)C[C@H](NC(=O)[C@@H](CC(=O)O)NC(=O)[C@H](CC(N)=O)NC(=O)[C@@H](NC(=O)[C@@H](NC(=O)[C@H](C)N)C(C)C)C(C)C)C(=O)O [A V V N dD L] (H-AVVN[dD]L-OH) | 520
3 | CC(C)C[C@H](NC(=O)[C@H](CC(=O)O)NC(=O)[C@@H](CC(N)=O)NC(=O)[C@@H](NC(=O)[C@@H](NC(=O)[C@H](C)N)C(C)C)C(C)C)C(=O)O [A V V dN D L] (H-AVV[dN]DL-OH) | 460
4 | CC(C)C[C@H](NC(=O)[C@H](CC(=O)O)NC(=O)[C@@H](CC(N)=O)NC(=O)[C@@H](NC(=O)[C@@H](NC(=O)[C@H](C)NC(=O)CNC(=O)[C@H](C)NC(=O)[C@@H](N)Cc1ccc(O)cc1)C(C)C)C(C)C)C(=O)O [Y A G A V V dN D L] | > 620
5 | CC(C)C[C@H](NC(=O)[C@H](CC(=O)O)NC(=O)[C@H](CC(N)=O)NC(=O)[C@@H](NC(=O)[C@@H](NC(=O)[C@H](C)NC(=O)CNC(=O)[C@H](C)NC(=O)[C@H](N)Cc1ccc(O)cc1)C(C)C)C(C)C)C(=O)O [dY A G A V V N D L] | 40
6 | CC(C)C[C@H](NC(=O)[C@H](CC(=O)O)NC(=O)[C@H](CC(N)=O)NC(=O)[C@@H](NC(=O)[C@@H](NC(=O)[C@H](C)NC(=O)[C@@H](C)NC(=O)[C@H](C)NC(=O)[C@@H](N)Cc1ccc(O)cc1)C(C)C)C(C)C)C(=O)O [Y A dA A V V N D L] (H-YA[dA]AVVNDL-OH) | 88
7 | CC(C)C[C@H](NC(=O)[C@H](CC(=O)O)NC(=O)[C@H](CC(N)=O)NC(=O)[C@@H](NC(=O)[C@@H](NC(=O)[C@@H](C)N)C(C)C)C(C)C)C(=O)O [dA V V N D L] (H-[dA]VVNDL-OH) | 90
8 | CC(C)C[C@H](NC(=O)[C@H](CC(=O)O)NC(=O)[C@H](CC(N)=O)NC(=O)[C@@H](NC(=O)[C@@H](NC(=O)[C@@H](C)NC(=O)CNC(=O)[C@H](C)NC(=O)[C@@H](N)Cc1ccc(O)cc1)C(C)C)C(C)C)C(=O)O [Y A G dA V V N D L] | 72
9 | CC(C)C[C@H](NC(=O)[C@H](CC(=O)O)NC(=O)[C@H](CC(N)=O)NC(=O)[C@@H](NC(=O)[C@@H](NC(=O)[C@H](N)Cc1ccc(O)cc1)C(C)C)C(C)C)C(=O)O [dY V V N D L] (H-[dY]VVNDL-OH) | 30
10 | CC(C)C[C@H](NC(=O)[C@H](CC(=O)O)NC(=O)[C@H](CC(N)=O)NC(=O)[C@H](NC(=O)[C@@H](NC(=O)[C@H](C)N)C(C)C)C(C)C)C(=O)O [A V dV N D L] (H-AV[dV]NDL-OH) | 600

Biological target: ribonucleotide reductase enzyme of herpes simplex virus (Human herpesvirus 1, UniProt P08543)
Test: not given
Settings: Nature 321:439-441 and 441-443 (1986); cited from earlier work

Row | Compound | inhibition in vitro of the activity of the enzyme
11 | Tyr Ala Gly Ala Val Val Asn Asp Leu | inhibited

Biological target: T2, ribonucleotide reductase enzyme of herpes simplex virus (Human herpesvirus 1, UniProt P08543)
T2 sequence (P08543 whole entry, looked up): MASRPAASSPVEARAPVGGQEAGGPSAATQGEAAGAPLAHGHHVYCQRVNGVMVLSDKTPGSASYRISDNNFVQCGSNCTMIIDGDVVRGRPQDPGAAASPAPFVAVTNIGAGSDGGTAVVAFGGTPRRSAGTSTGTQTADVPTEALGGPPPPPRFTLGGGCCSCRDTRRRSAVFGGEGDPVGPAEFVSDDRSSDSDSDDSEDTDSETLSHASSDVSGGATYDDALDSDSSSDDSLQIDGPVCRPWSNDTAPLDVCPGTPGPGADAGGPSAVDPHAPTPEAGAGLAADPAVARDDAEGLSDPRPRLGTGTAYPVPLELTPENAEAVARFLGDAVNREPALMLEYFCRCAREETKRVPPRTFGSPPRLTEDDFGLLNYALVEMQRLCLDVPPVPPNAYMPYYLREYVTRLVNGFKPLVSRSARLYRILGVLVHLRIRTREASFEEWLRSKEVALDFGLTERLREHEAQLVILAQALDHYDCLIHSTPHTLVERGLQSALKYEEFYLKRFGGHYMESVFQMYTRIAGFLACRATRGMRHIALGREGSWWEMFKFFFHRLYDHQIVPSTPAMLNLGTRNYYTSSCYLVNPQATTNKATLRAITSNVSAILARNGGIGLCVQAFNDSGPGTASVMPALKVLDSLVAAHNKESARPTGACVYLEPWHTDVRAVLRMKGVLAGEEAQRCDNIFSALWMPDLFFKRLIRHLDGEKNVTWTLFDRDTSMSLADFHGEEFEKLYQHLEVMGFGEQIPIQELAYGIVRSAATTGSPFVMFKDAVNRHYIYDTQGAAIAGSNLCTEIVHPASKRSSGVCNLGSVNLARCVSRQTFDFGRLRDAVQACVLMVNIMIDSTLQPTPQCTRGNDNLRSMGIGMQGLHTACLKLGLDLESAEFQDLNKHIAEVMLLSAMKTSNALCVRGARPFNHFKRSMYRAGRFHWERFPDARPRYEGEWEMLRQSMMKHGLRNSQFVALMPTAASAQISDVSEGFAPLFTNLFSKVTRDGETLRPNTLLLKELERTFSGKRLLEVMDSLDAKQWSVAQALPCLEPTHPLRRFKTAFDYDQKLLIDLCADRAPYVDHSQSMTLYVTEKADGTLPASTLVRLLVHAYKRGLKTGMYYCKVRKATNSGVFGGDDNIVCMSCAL
Test: not given
Settings: Nature 321:439-441 and 441-443 (1986); cited from earlier work

Row | Compound | inhibition in vitro of the activity of the enzyme
12 | YGAVVNDL [8-desalanine homolog of the nonapeptide, disclosed by Dutia et al] | inhibited

Reference: US4837304A, “Inhibitor of ribonucleotide reductase” (Merck & Co., Inc., priority 1987, dated 1989)
